Numbers after ± are expanded uncertainties.
Test: molar heat capacity at saturation pressure

O=C1CCCCC1C1(O)CCCCC1 (stereo not drawn) [1'-hydroxy-[1,1'-bicyclohexyl]-2-one]
molar heat capacity (116.67 K, Crystal): 113.7 ± 1 J/K/mol | molar heat capacity (118.84 K, Crystal): 115.6 ± 1 J/K/mol | molar heat capacity (120.97 K, Crystal): 117 ± 1 J/K/mol | molar heat capacity (123.07 K, Crystal): 118.7 ± 1 J/K/mol | molar heat capacity (125.14 K, Crystal): 120.4 ± 1 J/K/mol | molar heat capacity (127.19 K, Crystal): 122.1 ± 1 J/K/mol | molar heat capacity (129.21 K, Crystal): 123.6 ± 1.1 J/K/mol | molar heat capacity (131.21 K, Crystal): 125.2 ± 1.1 J/K/mol | molar heat capacity (133.17 K, Crystal): 126.7 ± 1.1 J/K/mol | molar heat capacity (135.12 K, Crystal): 128.2 ± 1.1 J/K/mol | molar heat capacity (137.05 K, Crystal): 129.6 ± 1.1 J/K/mol | molar heat capacity (138.96 K, Crystal): 131.3 ± 1.1 J/K/mol | molar heat capacity (141 K, Crystal): 132.8 ± 1.1 J/K/mol | molar heat capacity (143.17 K, Crystal): 134.4 ± 1.1 J/K/mol | molar heat capacity (145.31 K, Crystal): 136.2 ± 1.1 J/K/mol | molar heat capacity (147.42 K, Crystal): 137.7 ± 1.1 J/K/mol | molar heat capacity (149.52 K, Crystal): 139.4 ± 1.1 J/K/mol | molar heat capacity (149.69 K, Crystal): 139.5 ± 1.1 J/K/mol | molar heat capacity (151.77 K, Crystal): 141.3 ± 1.1 J/K/mol | molar heat capacity (153.83 K, Crystal): 142.8 ± 1.2 J/K/mol | molar heat capacity (155.94 K, Crystal): 144.7 ± 1.2 J/K/mol | molar heat capacity (158.11 K, Crystal): 146.2 ± 1.2 J/K/mol | molar heat capacity (160.26 K, Crystal): 148.1 ± 1.2 J/K/mol | molar heat capacity (162.4 K, Crystal): 149.6 ± 1.2 J/K/mol | molar heat capacity (164.58 K, Crystal): 151.5 ± 1.2 J/K/mol | molar heat capacity (166.82 K, Crystal): 153.1 ± 1.2 J/K/mol | molar heat capacity (169.05 K, Crystal): 154.8 ± 1.2 J/K/mol | molar heat capacity (171.25 K, Crystal): 156.7 ± 1.2 J/K/mol | molar heat capacity (173.43 K, Crystal): 158.6 ± 1.2 J/K/mol | molar heat capacity (175.59 K, Crystal): 160.1 ± 1.2 J/K/mol | molar heat capacity (177.74 K, Crystal): 162 ± 1.2 J/K/mol | molar heat capacity (179.87 K, Crystal): 163.8 ± 1.2 J/K/mol | molar heat capacity (181.98 K, Crystal): 165.4 ± 1.2 J/K/mol | molar heat capacity (184.22 K, Crystal): 167.4 ± 1.2 J/K/mol | molar heat capacity (186.58 K, Crystal): 169.1 ± 1.2 J/K/mol | molar heat capacity (188.92 K, Crystal): 171.2 ± 1.2 J/K/mol | molar heat capacity (191.24 K, Crystal): 172.9 ± 1.2 J/K/mol | molar heat capacity (193.62 K, Crystal): 174.9 ± 1.2 J/K/mol | molar heat capacity (196.06 K, Crystal): 176.6 ± 1.2 J/K/mol | molar heat capacity (198.49 K, Crystal): 179 ± 1.3 J/K/mol | molar heat capacity (200.89 K, Crystal): 180.8 ± 1.3 J/K/mol | molar heat capacity (203.28 K, Crystal): 182.7 ± 1.3 J/K/mol | molar heat capacity (205.65 K, Crystal): 184.8 ± 1.3 J/K/mol | molar heat capacity (208.08 K, Crystal): 186.7 ± 1.3 J/K/mol | molar heat capacity (210.57 K, Crystal): 188.6 ± 1.3 J/K/mol | molar heat capacity (213.04 K, Crystal): 191 ± 1.3 J/K/mol | molar heat capacity (215.63 K, Crystal): 192.9 ± 1.3 J/K/mol | molar heat capacity (218.36 K, Crystal): 195.1 ± 1.3 J/K/mol | molar heat capacity (220.54 K, Crystal): 197.1 ± 1.4 J/K/mol | molar heat capacity (223.28 K, Crystal): 199.4 ± 1.4 J/K/mol | molar heat capacity (226 K, Crystal): 201.5 ± 1.4 J/K/mol | molar heat capacity (228.71 K, Crystal): 203.8 ± 1.4 J/K/mol | molar heat capacity (231.37 K, Crystal): 206.2 ± 1.4 J/K/mol | molar heat capacity (234.03 K, Crystal): 209.2 ± 1.4 J/K/mol | molar heat capacity (236.67 K, Crystal): 210.8 ± 1.4 J/K/mol | molar heat capacity (239.45 K, Crystal): 214 ± 1.4 J/K/mol | molar heat capacity (242.37 K, Crystal): 216.3 ± 1.5 J/K/mol | molar heat capacity (245.3 K, Crystal): 218.9 ± 1.5 J/K/mol | molar heat capacity (248.2 K, Crystal): 221.7 ± 1.5 J/K/mol | molar heat capacity (251.09 K, Crystal): 224 ± 1.5 J/K/mol | molar heat capacity (253.97 K, Crystal): 227.2 ± 1.5 J/K/mol | molar heat capacity (256.81 K, Crystal): 229.6 ± 1.5 J/K/mol | molar heat capacity (259.61 K, Crystal): 232.7 ± 1.6 J/K/mol | molar heat capacity (262.37 K, Crystal): 235.2 ± 1.6 J/K/mol | molar heat capacity (265.1 K, Crystal): 238.8 ± 1.6 J/K/mol | molar heat capacity (267.8 K, Crystal): 241.5 ± 1.6 J/K/mol | molar heat capacity (270.46 K, Crystal): 244.1 ± 1.6 J/K/mol | molar heat capacity (273.22 K, Crystal): 247.9 ± 1.6 J/K/mol | molar heat capacity (274.83 K, Crystal): 249.2 ± 1.6 J/K/mol | molar heat capacity (276.1 K, Crystal): 250.8 ± 1.7 J/K/mol | molar heat capacity (277.41 K, Crystal): 252.4 ± 1.7 J/K/mol | molar heat capacity (278.95 K, Crystal): 254.3 ± 1.7 J/K/mol | molar heat capacity (279.97 K, Crystal): 255.8 ± 1.7 J/K/mol | molar heat capacity (281.77 K, Crystal): 257.8 ± 1.7 J/K/mol | molar heat capacity (282.51 K, Crystal): 258.4 ± 1.7 J/K/mol | molar heat capacity (284.57 K, Crystal): 261.4 ± 1.7 J/K/mol | molar heat capacity (285.02 K, Crystal): 262 ± 1.7 J/K/mol | molar heat capacity (287.35 K, Crystal): 264.2 ± 1.7 J/K/mol | molar heat capacity (287.51 K, Crystal): 264.9 ± 1.7 J/K/mol | molar heat capacity (289.97 K, Crystal): 267.6 ± 1.7 J/K/mol | molar heat capacity (290.11 K, Crystal): 268.6 ± 1.7 J/K/mol | molar heat capacity (292.4 K, Crystal): 271.5 ± 1.7 J/K/mol | molar heat capacity (292.83 K, Crystal): 271.4 ± 1.7 J/K/mol | molar heat capacity (294.18 K, Crystal): 273.5 ± 1.7 J/K/mol | molar heat capacity (295.66 K, Crystal): 275.3 ± 1.7 J/K/mol | molar heat capacity (308.34 K, Liquid): 351 ± 2.1 J/K/mol | molar heat capacity (310.04 K, Liquid): 351.5 ± 2.1 J/K/mol | molar heat capacity (311.73 K, Liquid): 353.4 ± 2.1 J/K/mol
